Molecular target: CDC7/DBF4 (Cell division cycle 7-related protein kinase/Activator of S phase kinase) (Homo sapiens, UniProt O00311)
Assay: Inhibition of CDC7/DBF4 using MCM-2 as substrate after 1 hr
Format: protein-complex assay

Sequence of CDC7/DBF4 (Cell division cycle 7-related protein kinase/Activator of S phase kinase) (Q9UBU7 whole entry): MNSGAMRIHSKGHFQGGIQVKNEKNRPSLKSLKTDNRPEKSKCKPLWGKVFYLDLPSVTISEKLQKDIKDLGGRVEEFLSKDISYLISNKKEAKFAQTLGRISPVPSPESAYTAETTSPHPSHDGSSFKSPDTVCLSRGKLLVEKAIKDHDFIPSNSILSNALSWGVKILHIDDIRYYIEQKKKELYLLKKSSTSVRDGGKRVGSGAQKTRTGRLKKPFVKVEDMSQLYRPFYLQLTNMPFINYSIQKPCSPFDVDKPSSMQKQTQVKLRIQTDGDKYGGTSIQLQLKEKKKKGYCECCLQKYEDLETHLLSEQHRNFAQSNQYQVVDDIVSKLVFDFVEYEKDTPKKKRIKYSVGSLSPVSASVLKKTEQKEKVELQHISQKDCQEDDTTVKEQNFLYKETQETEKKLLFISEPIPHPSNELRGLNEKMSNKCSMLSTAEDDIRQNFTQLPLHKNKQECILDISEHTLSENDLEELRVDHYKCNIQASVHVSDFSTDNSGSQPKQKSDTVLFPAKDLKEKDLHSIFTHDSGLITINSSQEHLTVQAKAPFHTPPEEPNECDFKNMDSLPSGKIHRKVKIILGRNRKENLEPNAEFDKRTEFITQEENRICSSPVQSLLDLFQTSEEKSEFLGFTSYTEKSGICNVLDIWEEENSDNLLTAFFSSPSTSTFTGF
Sequence of CDC7/DBF4 (Cell division cycle 7-related protein kinase/Activator of S phase kinase) (O00311 whole entry): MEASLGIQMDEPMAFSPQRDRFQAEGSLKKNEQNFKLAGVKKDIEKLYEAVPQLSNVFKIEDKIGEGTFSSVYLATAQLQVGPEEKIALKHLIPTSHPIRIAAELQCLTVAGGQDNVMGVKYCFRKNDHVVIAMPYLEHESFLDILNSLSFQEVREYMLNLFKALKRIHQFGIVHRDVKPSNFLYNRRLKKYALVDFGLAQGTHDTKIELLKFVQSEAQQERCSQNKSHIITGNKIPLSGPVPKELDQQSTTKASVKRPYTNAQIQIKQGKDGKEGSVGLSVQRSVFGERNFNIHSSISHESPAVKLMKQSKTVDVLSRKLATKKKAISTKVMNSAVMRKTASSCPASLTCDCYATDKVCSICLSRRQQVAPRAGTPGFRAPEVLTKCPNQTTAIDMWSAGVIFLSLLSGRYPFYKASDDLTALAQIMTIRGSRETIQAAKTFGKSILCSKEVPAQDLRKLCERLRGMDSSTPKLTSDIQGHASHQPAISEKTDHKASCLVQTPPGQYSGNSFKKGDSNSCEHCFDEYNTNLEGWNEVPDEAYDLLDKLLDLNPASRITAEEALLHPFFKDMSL

| SMILES | IC50 |
| --- | --- |
| O=C1CCC2(CCCCC2)c2sc(-c3cn[nH]c3)cc21 | 0.001 µM |
| Nc1cc(-c2cc3c(s2)C2(CCCCC2)CCC3=O)ccn1 | 0.033 µM |
| O=C1CCC2(CCCCC2)c2sc(-c3ccncc3)cc21 | 0.009 µM |
| O=C1NCCc2sc(-c3ccncc3)cc21 | 0.033 µM |
| O=C1NCC2(CCCCC2)c2sc(-c3cc[nH]n3)cc21 | 0.37 µM |
| Cn1cc(-c2cc3c(s2)C2(CCCCC2)CNC3=O)cn1 | > 25 µM |
| O=C1NCC2(CCCCC2)c2sc(-c3cn[nH]c3)cc21 | 0.001 µM |
| O=C1NCC2(CCCCC2)c2sc(-c3ncnc4[nH]cnc34)cc21 | 0.001 µM |
| CNC(=O)c1cc(-c2cc3c(s2)C2(CCCCC2)CNC3=O)ccn1 | > 25 µM |
| CC(=O)Nc1cccc(-c2cc3c(s2)C2(CCCCC2)CNC3=O)c1 | > 25 µM |
| CC(=O)Nc1cc(-c2cc3c(s2)C2(CCCCC2)CNC3=O)ccn1 | 0.041 µM |
| Nc1cc(-c2cc3c(s2)C2(CCCCC2)CNC3=O)ccn1 | 0.008 µM |
| O=C1NCC2(CCCCC2)c2sc(-c3cccnc3)cc21 | 5.1 µM |
| O=C1NCC2(CCCCC2)c2sc(-c3ccncc3)cc21 | < 0.001 µM |
| O=C1NCC2(CCCCC2)c2sc(Cl)cc21 | > 25 µM |

— ChEMBL document CHEMBL2016517, “3D Pharmacophore Model-Assisted Discovery of Novel CDC7 Inhibitors” (ACS Med Chem Lett, 2011)
